28 molecules from patent US10745384B2, “Indazole derivatives as αv integrin antagonists” (BRISTOL-MYERS SQUIBB COMPANY, priority 2016, dated 2020) can be followed below.

Counter-ions that a name gives are not always drawn.

The target of the assay is T1, human αVβ6 (Homo sapiens, UniProt P06756+P18564).
T1 construct: purchased R & D systems 3817-AV
T1 sequence (P06756 31-992 limits assumed): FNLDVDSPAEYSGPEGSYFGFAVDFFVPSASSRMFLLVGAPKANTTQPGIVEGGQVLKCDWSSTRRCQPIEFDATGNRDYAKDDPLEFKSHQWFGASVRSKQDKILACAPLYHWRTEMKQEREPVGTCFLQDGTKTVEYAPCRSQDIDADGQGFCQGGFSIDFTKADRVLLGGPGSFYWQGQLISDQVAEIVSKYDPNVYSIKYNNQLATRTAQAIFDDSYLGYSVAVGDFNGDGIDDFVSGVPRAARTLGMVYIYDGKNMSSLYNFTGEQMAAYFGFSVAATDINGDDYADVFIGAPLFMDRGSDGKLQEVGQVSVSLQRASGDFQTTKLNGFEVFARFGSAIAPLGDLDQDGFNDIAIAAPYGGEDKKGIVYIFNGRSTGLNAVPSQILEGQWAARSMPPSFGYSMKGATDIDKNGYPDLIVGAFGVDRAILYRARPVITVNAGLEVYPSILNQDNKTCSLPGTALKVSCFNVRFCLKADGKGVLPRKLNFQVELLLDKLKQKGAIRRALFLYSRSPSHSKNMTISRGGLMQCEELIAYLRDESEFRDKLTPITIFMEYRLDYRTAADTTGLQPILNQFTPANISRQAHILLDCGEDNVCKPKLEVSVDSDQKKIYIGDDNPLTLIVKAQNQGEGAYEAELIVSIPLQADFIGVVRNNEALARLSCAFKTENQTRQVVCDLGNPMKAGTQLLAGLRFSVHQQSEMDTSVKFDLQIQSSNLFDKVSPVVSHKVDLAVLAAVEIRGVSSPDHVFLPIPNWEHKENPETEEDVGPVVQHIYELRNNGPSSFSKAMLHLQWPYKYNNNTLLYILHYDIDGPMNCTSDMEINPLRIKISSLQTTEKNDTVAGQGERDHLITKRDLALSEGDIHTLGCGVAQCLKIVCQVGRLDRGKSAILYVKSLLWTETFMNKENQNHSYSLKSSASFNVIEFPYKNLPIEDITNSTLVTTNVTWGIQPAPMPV
T1 sequence (P18564 22-707 limits assumed): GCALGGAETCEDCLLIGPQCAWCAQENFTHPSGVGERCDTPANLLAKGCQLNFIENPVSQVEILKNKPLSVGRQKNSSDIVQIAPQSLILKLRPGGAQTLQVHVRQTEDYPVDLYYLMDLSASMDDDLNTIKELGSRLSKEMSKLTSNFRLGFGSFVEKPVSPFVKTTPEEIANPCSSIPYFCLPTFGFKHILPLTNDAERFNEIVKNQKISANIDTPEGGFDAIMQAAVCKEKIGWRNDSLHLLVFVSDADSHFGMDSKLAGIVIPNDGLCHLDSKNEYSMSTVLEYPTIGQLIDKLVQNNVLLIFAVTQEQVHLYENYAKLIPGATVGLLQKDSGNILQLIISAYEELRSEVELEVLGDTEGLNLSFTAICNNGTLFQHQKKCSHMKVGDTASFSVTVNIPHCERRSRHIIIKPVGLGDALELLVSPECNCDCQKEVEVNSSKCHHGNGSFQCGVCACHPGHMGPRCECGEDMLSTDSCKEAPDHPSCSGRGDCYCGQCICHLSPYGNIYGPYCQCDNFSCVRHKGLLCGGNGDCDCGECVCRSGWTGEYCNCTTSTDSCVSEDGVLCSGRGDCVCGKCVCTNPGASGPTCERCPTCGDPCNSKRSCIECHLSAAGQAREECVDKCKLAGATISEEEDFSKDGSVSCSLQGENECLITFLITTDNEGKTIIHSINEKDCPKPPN
Briefly: human αVβ6 HTRF binding assay. As to conditions: recombinant human αVβ6 integrin, FITC-conjugated fibronectin. The protocol: All binding assays used the HTRF (homogeneous time resolved fluorescence) technology from Cisbio International, therefore all assays are described as HTRF binding assays. The assay results for the Examples are listed above together with the characterization data. The HTRF binding assays are established for the following integrins: human αVβ6, human αVβ1, human αVβ3, human αVβ5, and human αVβ8. All assays used the following assay buffer: 20 mM Tris, pH 7.4, 1 mM MgCl2, 1 mM MnCl2, 0.01% Tween 20, and 0.01% BSA. Alternatively, a SPA-based assay was used for evaluation of receptor binding.
The following describes the components and a representative procedure for the human αVβ6 HTRF binding assay: Recombinant human αVβ6 Integrin (R & D systems, 3817-AV) was biotinylated. Biotinylated human αVβ6 Integrin was added to assay vessel at a final concentration of 1.25 nM. FITC-conjugated fibronectin (Cytoskeleton, FNR02) was then added at the final concentration of 5 nM. The mixture was centrifuged at 600 rpm for three minutes using Thermo Fisher Heraeus Multifuge X3 centrifuge and then incubated at room temperature for an hour. Streptavidin Terbium (Cisbio international 610STLB) was then added at the final concentration of 0.625 nM. The resulting mixture was centrifuged at 600 rpm for three minutes using Thermo Fisher Heraeus Multifuge X3 centrifuge and then incubated at room temperature overnight in dark before reading HTRF signals. […]
In general terms: TR-FRET usually uses a lanthanide donor and a delayed reading to cut background.
The IC50 is the point on the concentration scale where inhibition reaches its midpoint. Regarding `CN(C)Cc1cccc(C(CC(=O)O)n2ncc3cc(CCc4ccc5c(n4)NCCC5)ccc32)c1` (stereo not shown) [Example 26, 3-(3-((Dimethylamino)methyl)phenyl)-3-(5-(2-(5,6,7,8-tetrahydro-1,8-naphthyridin-2-yl)ethyl)-1H-indazol-1-yl)propanoic acid], the IC50 was 120 nM.

As for `CC(C)(O)c1cncc([C@@H](CC(=O)O)n2ncc3cc(OCCc4ccc5c(n4)NCCC5)ccc32)c1` [Example 145, (R)-3-(5-(2-hydroxypropan-2-yl)pyridin-3-yl)-3-(5-(2-(5,6,7,8-tetrahydro-1,8-naphthyridin-2-yl)ethoxy)-1H-indazol-1-yl)propanoic acid], the IC50 came out at 1900 nM.

For `CC(C)(C)OC(=O)N1CCC(C(CC(=O)O)n2ncc3cc(OCCc4ccc5c(n4)NCCC5)ccc32)CC1` (stereo not shown) [Example 74, 3-(1-(tert-Butoxycarbonyl)piperidin-4-yl)-3-(5-(2-(5,6,7,8-tetrahydro-1,8-naphthyridin-2-yl)ethoxy)-1H-indazol-1-yl)propanoic acid], the IC50 was 260 nM.

With `O=C(O)CC(c1cnc2ccccc2n1)n1ncc2c(OCCc3ccc4c(n3)NCCC4)cccc21` (stereo not shown) [Example 33, 3-(Quinoxalin-2-yl)-3-(4-(2-(5,6,7,8-tetrahydro-1,8-naphthyridin-2-yl)ethoxy)-1H-indazol-1-yl)propanoic acid], the IC50 was 1600 nM.

As to `Cc1ncc([C@@H](CC(=O)O)n2ncc3cc(OCCc4ccc5c(n4)N[C@H](C)CC5)ccc32)cn1` (single isomer, unassigned) [Example 175], the IC50 worked out at 6000 nM.

As for `COc1ccc([C@H](CC(=O)O)n2cc3ccc(CCc4ccc5c(n4)NCCC5)cc3n2)cn1` [Example 7, (S)-3-(6-Methoxypyridin-3-yl)-3-(6-(2-(5,6,7,8-tetrahydro-1,8-naphthyridin-2-yl)ethyl)-2H-indazol-2-yl)propanoic acid], the IC50 was determined as 6.6 nM.

In the case of `COc1ccc(C(CC(=O)O)n2ncc3cc(OCCc4ccc5c(n4)NCCC5)ccc32)nn1` (stereo not shown) [Example 114, 3-(6-Methoxypyridazin-3-yl)-3-(5-(2-(5,6,7,8-tetrahydro-1,8-naphthyridin-2-yl)ethoxy)-1H-indazol-1-yl)propanoic acid, TFA], the IC50 came to 2.6 nM.

With `O=C(O)CC(c1cncc(N2CCCC2)c1)n1ncc2cc(OCCc3ccc4c(n3)NCCC4)ccc21` (stereo not shown) [Example 127, 3-(5-(Pyrrolidin-1-yl)pyridin-3-yl)-3-(5-(2-(5,6,7,8-tetrahydro-1,8-naphthyridin-2-yl)ethoxy)-1H-indazol-1-yl)propanoic acid, 3 TFA], the IC50 was 6.2 nM.

Consider `O=C(O)CC(c1cncc(-c2ccn[nH]2)c1)n1ncc2cc(OCCc3ccc4c(n3)NCCC4)ccc21` (stereo not shown) [Example 141, 3-(5-(1H-pyrazol-5-yl)pyridin-3-yl)-3-(5-(2-(5,6,7,8-tetrahydro-1,8-naphthyridin-2-yl)ethoxy)-1H-indazol-1-yl)propanoic acid], for which the IC50 was 8.2 nM.

Take `O=C(O)C[C@H](c1cnc2ccccc2n1)n1ncc2cc(OCCc3ccc4c(n3)NCCC4)ccc21` [Example 16, (R)-3-(Quinoxalin-2-yl)-3-(5-(2-(5,6,7,8-tetrahydro-1,8-naphthyridin-2-yl)ethoxy)-1H-indazol-1-yl)propanoic acid]: the IC50 was 137 nM.

As for `O=C(O)CC(c1cccs1)n1ncc2cc(OCCc3ccc4c(n3)NCCC4)ccc21` (stereo not shown) [Example 49, 3-(5-(2-(5,6,7,8-Tetrahydro-1,8-naphthyridin-2-yl)ethoxy)-1H-indazol-1-yl)-3-(thiophen-2-yl)propanoic acid, TFA], the IC50 worked out at 33 nM.

Turning to `CC(C)(C)OC(=O)NCc1cncc(C(CC(=O)O)n2ncc3cc(OCCc4ccc5c(n4)NCCC5)ccc32)c1` (stereo not shown) [Example 123, 3-(5-(((tert-Butoxycarbonyl)amino)methyl)pyridin-3-yl)-3-(5-(2-(5,6,7,8-tetrahydro-1,8-naphthyridin-2-yl)ethoxy)-1H-indazol-1-yl)propanoic acid], the IC50 was determined as 5.5 nM.

With `Cn1cnc2cc(C(CC(=O)O)n3ncc4cc(OCCc5ccc6c(n5)NCCC6)ccc43)cnc21` (stereo not shown) [Example 126, 3-(3-Methyl-3H-imidazo[4,5-b]pyridin-6-yl)-3-(5-(2-(5,6,7,8-tetrahydro-1,8-naphthyridin-2-yl)ethoxy)-1H-indazol-1-yl)propanoic acid, 2 TFA], the IC50 stood at 21 nM.

As for `Cc1ncc([C@H](CC(=O)O)n2ncc3cc(OCCc4ccc5c(n4)N[C@@H](C)CC5)ccc32)cn1` (single isomer, unassigned) [Example 178], the IC50 was 110 nM.

With `Cn1cc(-c2cncc(C(CC(=O)O)n3ncc4cc(OCCc5ccc6c(n5)NCCC6)ccc43)c2)cn1` (stereo not shown) [Example 143, 3-(5-(1-methyl-1H-pyrazol-4-yl)pyridin-3-yl)-3-(5-(2-(5,6,7,8-tetrahydro-1,8-naphthyridin-2-yl)ethoxy)-1H-indazol-1-yl)propanoic acid], the IC50 was found to be 9.8 nM.

For the molecule `Cc1cc(C)n(-c2cccc(C(CC(=O)O)n3ncc4cc(OCCc5ccc6c(n5)NCCC6)ccc43)c2)n1` (stereo not shown) [Example 68, 3-(3-(3,5-Dimethylpyrazol-1-yl)phenyl)-3-(5-(2-(5,6,7,8-tetrahydro-1,8-naphthyridin-2-yl)ethoxy)-1H-indazol-1-yl)propanoic acid, TFA], the IC50 stood at 1.5 nM.

As for `Cn1ncc2ncc(C(CC(=O)O)n3ncc4cc(OCCc5ccc6c(n5)NCCC6)ccc43)cc21` (stereo not shown) [Example 137, 3-(1-Methyl-1H-pyrazolo[4,3-b]pyridin-6-yl)-3-(5-(2-(5,6,7,8-tetrahydro-1,8-naphthyridin-2-yl)ethoxy)-1H-indazol-1-yl)propanoic acid], the IC50 worked out at 7 nM.

With `O=C(O)CC(c1cccnc1)n1ncc2cc(OCCc3ccc4c(n3)NCCC4)ccc21` (stereo not shown) [Example 50, 3-(Pyridin-3-yl)-3-(5-(2-(5,6,7,8-tetrahydro-1,8-naphthyridin-2-yl)ethoxy)-1H-indazol-1-yl)propanoic acid, TFA], the IC50 is 80 nM.

With `COc1ccc([C@H](CC(=O)O)n2cc3ccc(CCCc4ccc5c(n4)NCCC5)cc3n2)cn1` [Example 9, (S)-3-(6-Methoxypyridin-3-yl)-3-(6-(3-(5,6,7,8-tetrahydro-1,8-naphthyridin-2-yl)propyl)-2H-indazol-2-yl)propanoic acid], the IC50 was 2.6 nM.

For `O=C(O)C[C@@H](c1cccc(N2CCCC2=O)c1)n1ncc2cc(OCCc3ccc4c(n3)NCCC4)ccc21` [Example 84, (S)-3-(3-(2-Oxopyrrolidin-1-yl)phenyl)-3-(5-(2-(5,6,7,8-tetrahydro-1,8-naphthyridin-2-yl)ethoxy)-1H-indazol-1-yl)propanoic acid, TFA], the half-inhibitory concentration (IC50) turned out to be 120 nM.

`CS(=O)(=O)NCc1cncc(C(CC(=O)O)n2ncc3cc(OCCc4ccc5c(n4)NCCC5)ccc32)c1` (stereo not shown) [Example 170]: the IC50 was found to be 18 nM.

In the case of `O=C(N[C@@H](Cn1ncc2cc(CCCc3ccc4c(n3)NCCC4)ccc21)C(=O)O)OCc1ccccc1` [Example 36, (S)-2-(((Benzyloxy)carbonyl)amino)-3-(5-(3-(5,6,7,8-tetrahydro-1,8-naphthyridin-2-yl)propyl)-1H-indazol-1-yl)propanoic acid], the IC50 is 77 nM.

`O=C(O)CC(Cc1ccc(F)cc1)n1ncc2cc(OCCc3ccc4c(n3)NCCC4)ccc21` (stereo not shown) [Example 78, 4-(4-Fluorophenyl)-3-(5-(2-(5,6,7,8-tetrahydro-1,8-naphthyridin-2-yl)ethoxy)-1H-indazol-1-yl)butanoic acid, TFA]: the IC50 amounted to 804 nM.

Regarding `Cc1cc(C(CC(=O)O)n2ncc3cc(OCCc4ccc5c(n4)NCCC5)ccc32)cnc1OCC(C)(C)O` (stereo not shown) [Example 90, 3-(6-(2-Hydroxy-2-methylpropoxy)-5-methylpyridin-3-yl)-3-(5-(2-(5,6,7,8-tetrahydro-1,8-naphthyridin-2-yl)ethoxy)-1H-indazol-1-yl)propanoic acid, TFA], the IC50 is 9.5 nM.

Turning to `O=C(O)CC(c1ccc2c(c1)CCO2)n1ncc2cc(OCCc3ccc4c(n3)NCCC4)ccc21` (stereo not shown) [Example 47, 3-(2,3-Dihydrobenzofuran-5-yl)-3-(5-(2-(5,6,7,8-tetrahydro-1,8-naphthyridin-2-yl)ethoxy)-1H-indazol-1-yl)propanoic acid, TFA], the IC50 was 7 nM.

Turning to `COc1ccc(C(CC(=O)O)n2ncc3cc(OCCc4ccc5c(n4)NCCC5)ccc32)cc1F` (stereo not shown) [Example 44, 3-(3-Fluoro-4-methoxyphenyl)-3-(5-(2-(5,6,7,8-tetrahydro-1,8-naphthyridin-2-yl)ethoxy)-1H-indazol-1-yl)propanoic acid, TFA], the IC50 amounted to 8.71 nM.

In the case of `O=C(O)CC(C1CC1)n1ncc2cc(OCCc3ccc4c(n3)NCCC4)ccc21` (stereo not shown) [Example 45, 3-Cyclopropyl-3-(5-(2-(5,6,7,8-tetrahydro-1,8-naphthyridin-2-yl)ethoxy)-1H-indazol-1-yl)propanoic acid, TFA], the IC50 was determined as 2300 nM.

Take `CC(C)(O)c1cncc([C@H](CC(=O)O)n2ncc3cc(OCCc4ccc5c(n4)NCCC5)ccc32)c1` [Example 146, (S)-3-(5-(2-hydroxypropan-2-yl)pyridin-3-yl)-3-(5-(2-(5,6,7,8-tetrahydro-1,8-naphthyridin-2-yl)ethoxy)-1H-indazol-1-yl)propanoic acid]: the IC50 worked out at 5.2 nM.
